Columns and labels:
[1] = system: O-GlcNAcylated p53 in MCF-7 cells; assay: Western blot of O-GlcNAcylated p53 levels in treated MCF-7 cells; format: cell-based; details: MCF-7, 24 hr, 2 mM, cytosol-containing supernatants
Procedure: MCF-7 cells were grown in MEM/EBSS media (Hyclone, Logan, Utah) supplemented with 10% fetal bovine serum and 0.01 mg/mL insulin. […] The glucose concentration of MEM/EBSS and DMEM/F12 media are 6 mM and 18 mM, respectively. Cells were maintained in humidified atmosphere with 95% air and 5% CO2 at 37° C.
MCF-7 cells were grown for 24 hr with treatment of 1% DMSO (negative control) or 2 mM STZ or acetazolamide dissolved in DMSO or 2 mM N^6-methyladenosine 5′-monophosphate dissolved in media. The cells were harvested and cytosol-containing supernatants were obtained.

[2] = system: O-GlcNAcylated c-myc in MCF-7 cells; assay: Western blot of O-GlcNAcylated c-myc levels in treated MCF-7 cells; format: cell-based; details: MCF-7, 24 hr treatment, 2 mM, nuclear lysates
Procedure: MCF-7 cells were grown in MEM/EBSS media (Hyclone, Logan, Utah) supplemented with 10% fetal bovine serum and 0.01 mg/mL insulin. MCF-10A cells were grown in DMEM/F12 media (Hyclone) supplemented with 5% horse serum, […], […], 20 ng/mL EGF, […], 100 units/mL penicillin-streptomycin and 2 mM glutamine. The glucose concentration of MEM/EBSS and DMEM/F12 media are 6 mM and 18 mM, respectively. Cells were maintained in humidified atmosphere with 95% air and 5% CO2 at 37° C.
MCF-7 breast cancer cells were treated for 24 hr with 1% DMSO, with an O-GlcNAcase inhibitor, streptozotocin (STZ), with N^6-methyladenosine 5′-monophosphate [an O-GlcNAcase inhibitor discovered through by screening with the pseudofluorescent substrate 4-methylumbelliferol (4-MU)-GlcNAc (7)] or with media (control) (FIG. 5).
O-GlcNAcase inhibitors, which increased O-GlcNAcylation levels of proteins by preventing cleavage of an O-GlcNAc moiety of Ser or Thr residues, were identified using the antibodies of the present invention. […]
MCF-7 cells were treated for 4 hr with 1% DMSO (negative control) or 2 mM ketoconazole in DMSO and an O-GlcNAcylated c-myc band was detected using a second antibody for O-GlcNAcylated c-myc (Peptide #1-G).

[3] = system: MCF-7 breast cancer cells; assay: Cell proliferation, MCF-7; format: cell-based
Procedure: Cell proliferation assays were carried out after seeding 3,000-5,000 cells in a 96-well plate with and without treatment of 50 μM ketoconazole dissolved in DMSO (final concentration, 1%) for 72 hr (FIG. 8, Panel A). The cell number was counted after staining the cells with 3-(4,5-dimethylthiazol-2-yl)2,5-diphenyl-tetrazolium bromide (MTT).

[4] = system: unmodified c-myc in MCF-7 cells; assay: Western blot of unmodified c-myc protein in treated MCF-7 cells; format: cell-based; details: MCF-7, 4 hr, 2 mM, Peptide #2-N antibody
Procedure: Western blot analysis was carried out with 10% gel electrophoresis using nuclear lysates obtained from MCF-7 cells with antibodies for O-GlcNAcylated c-myc (Peptide #2-G). […] There was no increase in unmodified c-myc protein after ketoconazole treatment as verified with antibodies for unmodified c-myc (Peptide #2-N) by Western blot analysis.

[5] = system: Mia Paca-2 pancreatic cancer cells; assay: Wound healing (cell migration) assay, Mia Paca-2; format: cell-based; details: Mia Paca-2, 100 μM
Procedure: (§1) Wound healing assays were also carried out to verify inhibition of cell migration after ketoconazole treatment.
(§2) Wound healing assays to measure inhibition of cell migration toward scratched area with and without treatment of 100 μM ketoconazole dissolved in DMSO (final concentration, 1%). Percent of cells migrated toward a scratched field are shown. […] Percent of cells migrated toward a scratched field are shown.

SW480 colon cancer cells = assay: Wound healing (cell migration) assay, SW480; format: cell-based, human; details: SW480, 100 μM
Procedure: as §2

[6] = system: PANC1 pancreatic cancer cells; assay: Wound healing (cell migration) assay, PANC1; format: cell-based; details: PANC1, 100 μM
Procedure: as §1, §2

MCF-7 and MCF10A cells = assay: Lactate dehydrogenase (LDH) cytotoxicity assay, MCF-7 compared with MCF10A; format: cell-based; details: 2 mM, 4 hr
Procedure: Increased O-GlcNAcylated c-myc levels in MCF-7 cells induced cell death. MCF-7 tumor cell death after 2 mM ketoconazole treatment was compared with MCF10A normal cell death by LDH cytotoxicity assay. After treatment of cells for 4 hr, extracellular media and Triton X-100 solubilized cells were obtained and oxidation of NADH to NAD+ in both fractions was monitored for 2 min at a 340 nm to obtain total (media+cells) LDH release.

HT29 colon cancer cells = assay: Wound healing (cell migration) assay, HT29; format: cell-based, human; details: HT29, 100 μM
Procedure: as §2

[7] = system: MCF10CA1A breast cancer cells; assay: QCM ECMatrix cell invasion assay, MCF10CA1A; format: cell-based; details: MCF-10CA1A, 100 μM for 72 hr
Procedure: Cell invasiveness of SW480 and HT29 human colon adenocarcinoma cells and MCF10CA1A breast cancer cells with and without 72 hr treatment with 100 μM ketoconazole was studied in 24-well plates using the QCM ECMatrix cell invasion assay kit (EMD Millipore).

Row | SMILES | Levels of O-GlcNAcylated p53 [1] | O-GlcNAcylated c-myc levels [2] | inhibition of cell proliferation [3] | unmodified c-myc protein level [4] | % cells migrated ([5]; 0 hr) [%] | % cells migrated ([5]; 24 hr) [%] | % cells migrated ([5]; 24 hr, listed as Ketoconazole) [%] | % cells migrated ([5]; 48 hr) [%] | Percent of cells migrated (SW480 colon cancer cells; 0 hr) | inhibition of cell migration (SW480 colon cancer cells; 24 hours) | Percent of cells migrated (SW480 colon cancer cells; 24 hr) | % cells migrated ([6]; 0 hr) [%] | % cells migrated ([6]; 24 hr) [%] | % cells migrated ([6]; 48 hr) [%] | inhibition of cell migration ([6]; wound healing) | cell death in MCF-7 cells higher than in MCF10A cells (LDH release) (MCF-7 and MCF10A cells) [%] | Percent of cells migrated (HT29 colon cancer cells; 0 hr) | inhibition of cell migration (HT29 colon cancer cells; 24 hours) | Percent of cells migrated (HT29 colon cancer cells; 24 hr) | inhibition of migration in cell invasion assay [7]
1 | CC(=O)Nc1nnc(S(N)(=O)=O)s1 [acetazolamide] | potent inducer | did not increase | – | – | – | – | – | – | – | – | – | – | – | – | – | – | – | – | – | –
2 | CC(=O)N1CCN(c2ccc(OCC3COC(Cn4ccnc4)(c4ccc(Cl)cc4Cl)O3)cc2)CC1 (centres unmarked) [ketoconazole] | – | – | inhibited the proliferation | no increase | 0 | 11.6 | 10 | 12 | 0 | slightly inhibited | 27 | 0 | 6 | 11 | failed to inhibit | 84 | 0 | slightly inhibited | 8 | partially inhibited
